System: test plant species
Experiment: Post-emergent herbicidal activity test (greenhouse, foliar spray, visual growth reduction)
Format: in vivo
Conditions: post-emergence, 336 h, ALOMY: blackgrass (Alopecurus myosuroides), 140 g ai/ha, 14 days after application, read-out: Visual Growth Reduction (%) 14 Days After Application, ALOMY
How it was run: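 Scoring used a 0 to 100 percent visual scale of growth reduction against solvent-treated controls, read 14 d after spraying. Applications went onto plants at first or second true leaf stage, 187 L/ha, with crop oil concentrate and X-77 surfactant in the carrier. Post-treatment watering was by subirrigation to avoid wash-off.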

| SMILES | pest or weed control at 140 g/ha [%] |
| --- | --- |
| COC(=O)c1nc(-c2ccc(OC(F)(F)F)cc2)c(F)cc1Cl [F185, Methyl 3-chloro-5-fluoro-6-(4-(trifluoromethoxy)phenyl)picolinate] | 0 to 29 |
| CCOC(=O)c1nc(-c2ccc(Cl)c(OC)c2F)cc(OCC)c1N [F77, ethyl 3-amino-6-(4-chloro-2-fluoro-3-methoxyphenyl)-4-ethoxypicolinate] | 0 to 29 |
| COC(=O)c1nc(-c2ccc(C(F)(F)F)c(F)c2F)ccc1Cl [F110, Methyl 3-chloro-6-(2,3-difluoro-4-(trifluoromethyl)phenyl)picolinate] | 0 to 29 |

Same assay, conditions: post-emergence, 336 h, AMARE: redroot pigweed (Amaranthus retroflexus), 140 g ai/ha, 14 days after application, read-out: Visual Growth Reduction (%) 14 Days After Application, AMARE

| SMILES | pest or weed control at 140 g/ha [%] |
| --- | --- |
| COC(=O)c1nc(-c2ccc(OC(F)(F)F)cc2)c(F)cc1Cl [F185, Methyl 3-chloro-5-fluoro-6-(4-(trifluoromethoxy)phenyl)picolinate] | 0 to 29 |
| COC(=O)c1nc(-c2ccc(C(F)(F)F)c(F)c2F)ccc1Cl [F110, Methyl 3-chloro-6-(2,3-difluoro-4-(trifluoromethyl)phenyl)picolinate] | 85 to 94 |

Same assay, conditions: post-emergence, 336 h, AVEFA: wild oat (Avena fatua), 140 g ai/ha, 14 days after application, read-out: Visual Growth Reduction (%) 14 Days After Application, AVEFA

| SMILES | pest or weed control at 140 g/ha [%] |
| --- | --- |
| COC(=O)c1nc(-c2ccc(OC(F)(F)F)cc2)c(F)cc1Cl [F185, Methyl 3-chloro-5-fluoro-6-(4-(trifluoromethoxy)phenyl)picolinate] | 0 to 29 |
| CCOC(=O)c1nc(-c2ccc(Cl)c(OC)c2F)cc(OCC)c1N [F77, ethyl 3-amino-6-(4-chloro-2-fluoro-3-methoxyphenyl)-4-ethoxypicolinate] | 0 to 29 |
| COC(=O)c1nc(-c2ccc(C(F)(F)F)c(F)c2F)ccc1Cl [F110, Methyl 3-chloro-6-(2,3-difluoro-4-(trifluoromethyl)phenyl)picolinate] | 0 to 29 |

Same assay, conditions: post-emergence, 336 h, CHEAL: lambsquarters (Chenopodium album), 140 g ai/ha, 14 days after application, read-out: Visual Growth Reduction (%) 14 Days After Application, CHEAL

| SMILES | pest or weed control at 140 g/ha [%] |
| --- | --- |
| COC(=O)c1nc(-c2ccc(OC(F)(F)F)cc2)c(F)cc1Cl [F185, Methyl 3-chloro-5-fluoro-6-(4-(trifluoromethoxy)phenyl)picolinate] | 45 to 59 |
| CCOC(=O)c1nc(-c2ccc(Cl)c(OC)c2F)cc(OCC)c1N [F77, ethyl 3-amino-6-(4-chloro-2-fluoro-3-methoxyphenyl)-4-ethoxypicolinate] | 45 to 59 |
| COC(=O)c1nc(-c2ccc(C(F)(F)F)c(F)c2F)ccc1Cl [F110, Methyl 3-chloro-6-(2,3-difluoro-4-(trifluoromethyl)phenyl)picolinate] | 75 to 84 |

Same assay, conditions: post-emergence, 336 h, CIRAR: canada thistle (Cirsium arvense), 140 g ai/ha, 14 days after application, read-out: Visual Growth Reduction (%) 14 Days After Application, CIRAR

| SMILES | pest or weed control at 140 g/ha [%] |
| --- | --- |
| COC(=O)c1nc(-c2ccc(OC(F)(F)F)cc2)c(F)cc1Cl [F185, Methyl 3-chloro-5-fluoro-6-(4-(trifluoromethoxy)phenyl)picolinate] | 0 to 29 |
| CCOC(=O)c1nc(-c2ccc(Cl)c(OC)c2F)cc(OCC)c1N [F77, ethyl 3-amino-6-(4-chloro-2-fluoro-3-methoxyphenyl)-4-ethoxypicolinate] | 0 to 29 |
| COC(=O)c1nc(-c2ccc(C(F)(F)F)c(F)c2F)ccc1Cl [F110, Methyl 3-chloro-6-(2,3-difluoro-4-(trifluoromethyl)phenyl)picolinate] | 85 to 94 |

Same assay, conditions: post-emergence, 336 h, CYPES: yellow nutsedge (Cyperus esculentus), 140 g ai/ha, 14 days after application, read-out: Visual Growth Reduction (%) 14 Days After Application, CYPES

| SMILES | pest or weed control at 140 g/ha [%] |
| --- | --- |
| COC(=O)c1nc(-c2ccc(OC(F)(F)F)cc2)c(F)cc1Cl [F185, Methyl 3-chloro-5-fluoro-6-(4-(trifluoromethoxy)phenyl)picolinate] | 0 to 29 |
| CCOC(=O)c1nc(-c2ccc(Cl)c(OC)c2F)cc(OCC)c1N [F77, ethyl 3-amino-6-(4-chloro-2-fluoro-3-methoxyphenyl)-4-ethoxypicolinate] | 0 to 29 |
| COC(=O)c1nc(-c2ccc(C(F)(F)F)c(F)c2F)ccc1Cl [F110, Methyl 3-chloro-6-(2,3-difluoro-4-(trifluoromethyl)phenyl)picolinate] | 0 to 29 |

Same assay, conditions: post-emergence, 336 h, DIGSA: crabgrass (Digitaria sanguinalis), 140 g ai/ha, 14 days after application, read-out: Visual Growth Reduction (%) 14 Days After Application, DIGSA

| SMILES | pest or weed control at 140 g/ha [%] |
| --- | --- |
| COC(=O)c1nc(-c2ccc(OC(F)(F)F)cc2)c(F)cc1Cl [F185, Methyl 3-chloro-5-fluoro-6-(4-(trifluoromethoxy)phenyl)picolinate] | 75 to 84 |
| CCOC(=O)c1nc(-c2ccc(Cl)c(OC)c2F)cc(OCC)c1N [F77, ethyl 3-amino-6-(4-chloro-2-fluoro-3-methoxyphenyl)-4-ethoxypicolinate] | 0 to 29 |
| COC(=O)c1nc(-c2ccc(C(F)(F)F)c(F)c2F)ccc1Cl [F110, Methyl 3-chloro-6-(2,3-difluoro-4-(trifluoromethyl)phenyl)picolinate] | 0 to 29 |

Same assay, conditions: post-emergence, 336 h, ECHCG: barnyardgrass (Echinochloa crus-galli), 140 g ai/ha, 14 days after application, read-out: Visual Growth Reduction (%) 14 Days After Application, ECHCG

| SMILES | pest or weed control at 140 g/ha [%] |
| --- | --- |
| COC(=O)c1nc(-c2ccc(OC(F)(F)F)cc2)c(F)cc1Cl [F185, Methyl 3-chloro-5-fluoro-6-(4-(trifluoromethoxy)phenyl)picolinate] | 0 to 29 |
| CCOC(=O)c1nc(-c2ccc(Cl)c(OC)c2F)cc(OCC)c1N [F77, ethyl 3-amino-6-(4-chloro-2-fluoro-3-methoxyphenyl)-4-ethoxypicolinate] | 0 to 29 |
| COC(=O)c1nc(-c2ccc(C(F)(F)F)c(F)c2F)ccc1Cl [F110, Methyl 3-chloro-6-(2,3-difluoro-4-(trifluoromethyl)phenyl)picolinate] | 0 to 29 |

Same assay, conditions: post-emergence, 336 h, IPOHE: ivy-leaf morning glory (Ipomoea hederacea), 140 g ai/ha, 14 days after application, read-out: Visual Growth Reduction (%) 14 Days After Application, IPOHE

| SMILES | pest or weed control at 140 g/ha [%] |
| --- | --- |
| COC(=O)c1nc(-c2ccc(OC(F)(F)F)cc2)c(F)cc1Cl [F185, Methyl 3-chloro-5-fluoro-6-(4-(trifluoromethoxy)phenyl)picolinate] | 75 to 84 |
| CCOC(=O)c1nc(-c2ccc(Cl)c(OC)c2F)cc(OCC)c1N [F77, ethyl 3-amino-6-(4-chloro-2-fluoro-3-methoxyphenyl)-4-ethoxypicolinate] | 0 to 29 |
| COC(=O)c1nc(-c2ccc(C(F)(F)F)c(F)c2F)ccc1Cl [F110, Methyl 3-chloro-6-(2,3-difluoro-4-(trifluoromethyl)phenyl)picolinate] | 95 to 100 |

Same assay, conditions: post-emergence, 336 h, KCHSC: kochia (Bassia scoparia), 140 g ai/ha, 14 days after application, read-out: Visual Growth Reduction (%) 14 Days After Application, KCHSC

| SMILES | pest or weed control at 140 g/ha [%] |
| --- | --- |
| COC(=O)c1nc(-c2ccc(OC(F)(F)F)cc2)c(F)cc1Cl [F185, Methyl 3-chloro-5-fluoro-6-(4-(trifluoromethoxy)phenyl)picolinate] | 0 to 29 |
| COC(=O)c1nc(-c2ccc(C(F)(F)F)c(F)c2F)ccc1Cl [F110, Methyl 3-chloro-6-(2,3-difluoro-4-(trifluoromethyl)phenyl)picolinate] | 0 to 29 |

Same assay, conditions: post-emergence, 336 h, ORYSA: rice (Oryza sativa), 140 g ai/ha, 14 days after application, read-out: Visual Growth Reduction (%) 14 Days After Application, ORYSA

| SMILES | pest or weed control at 140 g/ha [%] |
| --- | --- |
| COC(=O)c1nc(-c2ccc(OC(F)(F)F)cc2)c(F)cc1Cl [F185, Methyl 3-chloro-5-fluoro-6-(4-(trifluoromethoxy)phenyl)picolinate] | 0 to 29 |
| CCOC(=O)c1nc(-c2ccc(Cl)c(OC)c2F)cc(OCC)c1N [F77, ethyl 3-amino-6-(4-chloro-2-fluoro-3-methoxyphenyl)-4-ethoxypicolinate] | 0 to 29 |
| COC(=O)c1nc(-c2ccc(C(F)(F)F)c(F)c2F)ccc1Cl [F110, Methyl 3-chloro-6-(2,3-difluoro-4-(trifluoromethyl)phenyl)picolinate] | 0 to 29 |

Same assay, conditions: post-emergence, 336 h, SETFA: giant foxtail (Setaria faberi), 140 g ai/ha, 14 days after application, read-out: Visual Growth Reduction (%) 14 Days After Application, SETFA

| SMILES | pest or weed control at 140 g/ha [%] |
| --- | --- |
| COC(=O)c1nc(-c2ccc(OC(F)(F)F)cc2)c(F)cc1Cl [F185, Methyl 3-chloro-5-fluoro-6-(4-(trifluoromethoxy)phenyl)picolinate] | 30 to 44 |
| CCOC(=O)c1nc(-c2ccc(Cl)c(OC)c2F)cc(OCC)c1N [F77, ethyl 3-amino-6-(4-chloro-2-fluoro-3-methoxyphenyl)-4-ethoxypicolinate] | 0 to 29 |
| COC(=O)c1nc(-c2ccc(C(F)(F)F)c(F)c2F)ccc1Cl [F110, Methyl 3-chloro-6-(2,3-difluoro-4-(trifluoromethyl)phenyl)picolinate] | 0 to 29 |

Same assay, conditions: post-emergence, 336 h, SORVU: grain sorghum (Sorghum vulgare), 140 g ai/ha, 14 days after application, read-out: Visual Growth Reduction (%) 14 Days After Application, SORVU

| SMILES | pest or weed control at 140 g/ha [%] |
| --- | --- |
| COC(=O)c1nc(-c2ccc(OC(F)(F)F)cc2)c(F)cc1Cl [F185, Methyl 3-chloro-5-fluoro-6-(4-(trifluoromethoxy)phenyl)picolinate] | 60 to 74 |
| CCOC(=O)c1nc(-c2ccc(Cl)c(OC)c2F)cc(OCC)c1N [F77, ethyl 3-amino-6-(4-chloro-2-fluoro-3-methoxyphenyl)-4-ethoxypicolinate] | 0 to 29 |
| COC(=O)c1nc(-c2ccc(C(F)(F)F)c(F)c2F)ccc1Cl [F110, Methyl 3-chloro-6-(2,3-difluoro-4-(trifluoromethyl)phenyl)picolinate] | 60 to 74 |

Same assay, conditions: post-emergence, 336 h, STEME: common chickweed (Stellaria media), 140 g ai/ha, 14 days after application, read-out: Visual Growth Reduction (%) 14 Days After Application, STEME

| SMILES | pest or weed control at 140 g/ha [%] |
| --- | --- |
| COC(=O)c1nc(-c2ccc(OC(F)(F)F)cc2)c(F)cc1Cl [F185, Methyl 3-chloro-5-fluoro-6-(4-(trifluoromethoxy)phenyl)picolinate] | 0 to 29 |
| CCOC(=O)c1nc(-c2ccc(Cl)c(OC)c2F)cc(OCC)c1N [F77, ethyl 3-amino-6-(4-chloro-2-fluoro-3-methoxyphenyl)-4-ethoxypicolinate] | 0 to 29 |

Same assay, conditions: post-emergence, 336 h, TRZAS: wheat, spring (Triticum aestivum), 140 g ai/ha, 14 days after application, read-out: Visual Growth Reduction (%) 14 Days After Application, TRZAS

| SMILES | pest or weed control at 140 g/ha [%] |
| --- | --- |
| COC(=O)c1nc(-c2ccc(OC(F)(F)F)cc2)c(F)cc1Cl [F185, Methyl 3-chloro-5-fluoro-6-(4-(trifluoromethoxy)phenyl)picolinate] | 0 to 29 |
| CCOC(=O)c1nc(-c2ccc(Cl)c(OC)c2F)cc(OCC)c1N [F77, ethyl 3-amino-6-(4-chloro-2-fluoro-3-methoxyphenyl)-4-ethoxypicolinate] | 0 to 29 |
| COC(=O)c1nc(-c2ccc(C(F)(F)F)c(F)c2F)ccc1Cl [F110, Methyl 3-chloro-6-(2,3-difluoro-4-(trifluoromethyl)phenyl)picolinate] | 0 to 29 |
